What all share (format): in vivo, mouse
Assay [1] deals with ciliary body. Put plainly: Histology (light and electron microscopy) of ciliary body after PDT in C57BL/6 normal mice. The method, then:
Eyes were enucleated at 6 hours (only DBA/2J), at 1 and 7 days after treatment, and at the end of IOP follow up (8 weeks after treatment)(n=2 in each group at each time point) and processed for light and transmission electron microscopic examination. The eyes were bisected behind the limbus, placed in modified Karnovsky's fixative at 4° C. overnight, and then transferred to 0.1 M cacodylate buffer at pH 7.4. Ciliary body specimens were observed by stereomicroscopy at 1 day after PDT for normal mice in the 4.0 mg/kg dose-treated group. Tissues were postfixed in aqueous 2% osmium tetroxide, stained en bloc with Uranyl Acetate, dehydrated in graded ethanols, and embedded in Epon. One-micrometer-thick sections were stained with 0.5% toluidine blue in borate buffer for light microscopy and examined using a photomicroscope (Leica Microsystems, Wetzlar, Germany). Thin sections were stained with aqueous uranyl acetate, and Sato's lead stain, and examined with a transmission electron microscope (CM 10; Phillips, Eindhoven, The Netherlands).

The subject of another assay is DBA/2J glaucoma mice. Nature of the assay: IOP measurement (applanation tonometer) after transscleral ciliary body PDT in DBA/2J glaucoma mice. The method, then: All experiments were performed in accordance with the Association for Research in Vision and Ophthalmology Statement for the Use of Animals in Ophthalmic and Vision Research. C57BL/6 female mice aged 3 months (n=20) were used as the normal model. DBA/2J female mice aged 8 months (n=20) were used as the glaucoma mouse model. One eye of each animal was treated and the other eye served as a control (for both the normal and glaucoma models). Animals were housed in covered cages, were fed with a standard rodent diet ad libitum and were kept under constant 12 hour light-12 hour dark cycles. For general anesthesia, a mixture of ketamine (100 mg/kg) and xylazine (9 mg/kg) was administered intraperitoneally.
DBA/2J mice spontaneously develop essential iris atrophy, pigment dispersion, and glaucomatous changes. The IOP becomes elevated in most mice by the age of 9 months, which can be followed by ganglion cell loss, optic nerve atrophy and optic nerve cupping. As glaucoma developed, ganglion cell loss and mild cupping of the optic nerve were present in some animals by 11 months and in the majority of mice by the age of 22 months.
Verteporfin photosensitizer (Novartis Ophthalmics, Inc., Duluth, Ga.) was used in these experiments. The mice were systemically anesthetized prior to PDT, and the photosensitizer dye was administered to the animals by tail vain injections using a 30 G needle 5 minutes before laser irradiation. A dose of 2.0 or 4.0 mg/kg was used in C57BL/6 normal mice and of 1.0 mg/kg was used in DBA/2J mice. The laser irradiation to the ciliary body was applied transsclerally using a 600 μm optical fiber at a wavelength of light of 689 nm from a Diode Laser, with an irradiance of 1800 mW/cm^2 and a fluence of 100 J/cm^2 (Lumenis, Santa Clara, Calif.). Transscleral irradiation of the ciliary body was performed with applications for 360 degrees of the corneoscleral limbus in C57BL/6 normal mice and for 180 degrees in DBA/2J mice. In the C57BL/6 and DBA/2J mice, 16 and 8 spots, respectively, were irradiated to overlap with one another. In the eyes prepared for lectin labeling and terminal deoxynucleotide transferase-mediated nick end labeling (TUNEL) staining (a measure of apoptosis), PDT was performed in C57BL/6 mice to cover 180 degrees of the ciliary body at a 4.0 mg/kg verteporfin dose to compare the degree of staining between irradiated area and non-irradiated area. Retreatment was performed in C57BL/6 normal mice which had been treated with 2.0 mg/kg of verteporfin after the IOP measurement at post-PDT day 7 using the same light parameters.
The IOP was measured using a previously reported applanation tonometer (Ahamed et al. (2003) IOVS 44:ARVO E-Abstract 3336) (n=12 in DBA/2J mice, n=5 in C57BL/6 mice at each dose). The principle of applanation tonometry employs fiber-optic gauges which are designed around a Fabry-Perot interferometer (FPI) (FTI-10; FISO Technologies, Inc., Quebec, Canada). FPI consists of two mirrors facing each other, the space separating the mirrors being called the cavity length. Light reflected in the FPI is wavelength-modulated in exact accordance with the cavity length. […]
IOP was measured under general anesthesia. […]
As soon as the mice were anesthetized sufficiently, they were placed on a surgical platform. When the pressure sensor applanated a central area of mouse cornea under a dissecting microscope, the IOP (psi) was measured by the device 10 times automatically. […]

The subject of assay [2] is ciliary body. Nature of the assay: TUNEL staining after PDT in DBA/2J mice. Particulars: 1.0 mg/kg, 180 degrees; 1 day after PDT. The method, then:
(§1) Lectin labeling of vascular endothelial cells and TUNEL staining (to examine apoptotic cells) was performed 1 day after PDT in C57BL16 normal mice (n=2). In DBA/2J mice, only TUNEL staining was performed. PDT was performed to cover 180 degrees of the ciliary body at a dose of 4.0 mg/kg (C57BL/6) and 1.0 mg/kg (DBA/2J) verteporfin to compare the degree of staining between irradiated area and non-irradiated area. Non-operated fellow eyes (n=2) were used as controls. After sufficient anesthesia, the animals were perfused with 8 mL phosphate buffered saline (PBS) administered via a catheter in the left ventricle. After PBS perfusion, fluorescein-isothiocyanate (FITC)-coupled Concanavalin A lectin (20 μg/mL in PBS, pH 7.4, 5 mg/kg BW)(Vector Labs, Burlingame, Calif.) was then perfused to stain vascular endothelial cells. Four percent paraformaldehyde in 0.1 PBS (pH 7.4) was perfused following PBS perfusion to remove residual unbound lectin. Enucleated eyes were fixed in 4% paraformaldehyde in 0.1 PBS overnight and were immersed in graded sucrose in 0.1 PBS. The samples were embedded in optimal cutting temperature (OCT) compound (Tissue-Tek, Tokyo, Japan), and sectioned vertically at 10-μm. TUNEL staining was performed according to the manufacturer's protocol (Fluorescein In Situ Apoptosis Detection Kit; CHEMICON International, Temecula, Calif.) to detect retinal cell death induced by PDT. […]

Assay [3] deals with ciliary body. Nature of the assay: Lectin labeling of vascular endothelial cells and TUNEL staining after PDT in C57BL/6 normal mice. The conditions noted are these: 4.0 mg/kg, 180 degrees; 1 day after PDT. On the procedure: as §1

As to verteporfin, the “ciliary body histological findings” value in the assay with ciliary body [1] (2.0 mg/kg and 4.0 mg/kg, 7 days after PDT) is “ciliary body vessels had recanalized”; in the assay with ciliary body [1] (2.0 mg/kg, 1 day after PDT), “Most ciliary body blood vessels in treated eyes appeared thrombosed and all capillaries were damaged”; in the assay with ciliary body [1] (4.0 mg/kg, 1 day after PDT) it was “vascular injury, thrombosis with vacuolization of endothelial cells, extravasculum of leukocyte and erythrocytes and severe edema”. Further, the “mean IOP of treated eyes” value is on record as 15.9±5.7 mmHg with DBA/2J glaucoma mice (1.0 mg/kg i.v., 689 nm, 100 J/cm^2, 180 degrees, 1 day after treatment) and 9.5±3.4 mmHg in the assay on DBA/2J glaucoma mice (1.0 mg/kg, 180 degrees, 3 days after PDT). Also, the “difference of mean IOP between fellow control eyes and treated eyes” value in the assay with DBA/2J glaucoma mice (1.0 mg/kg, 180 degrees, 1 day after PDT) is on record as “no significant difference”. In the assay on DBA/2J glaucoma mice (1.0 mg/kg, 180 degrees, 3 days after PDT, p<0.05), the “reduction of mean IOP of treated eyes compared to fellow control eyes” value is on record as 40.8%. For the same substance, the IOP reduction result in the assay with DBA/2J glaucoma mice (1.0 mg/kg, treatment of 180°) is “significant reduction of IOP”. The “TUNEL positive (apoptotic) cells” value was “Many TUNEL positive cells were seen in the ciliary process in both the treated and untreated sides of the treated eye” in the assay on ciliary body [2]; “some TUNEL positive cells in the ciliary body and retina of the PDT treated eyes” with ciliary body [3]. The “lectin staining of ciliary body vessels on the treated side” value in the assay with ciliary body [3] is recorded as “showed little staining with lectin”.

Source of the values: patent US10272261B2, “Methods and compositions for treating ocular glaucoma” (Massachusetts Eye and Ear Infirmary, priority 2004, dated 2019).
